Results as given in the NIST ThermoML archive (doi:10.1007/s10765-009-0593-3).
± gives the expanded uncertainty stated by the source.

Settings: 101.33 kPa, Liquid; for speed of sound: Pulse-echo method

mass density (288.15 K) [kg/m3]	speed of sound (288.15 K) [m/s]	mass density (293.15 K) [kg/m3]	speed of sound (293.15 K) [m/s]	mass density (298.15 K) [kg/m3]	speed of sound (298.15 K) [m/s]	mass density (303.15 K) [kg/m3]	speed of sound (303.15 K) [m/s]	mass density (308.15 K) [kg/m3]	speed of sound (308.15 K) [m/s]	SMILES
924.348 ± 0.29	1306.3 ± 0.83	919.954 ± 0.29	1287.9 ± 0.83	915.522 ± 0.3	1269.9 ± 0.82	911.078 ± 0.31	1251.7 ± 0.82	906.642 ± 0.31	1234.1 ± 0.81	CCCOCC(C)OCC(C)O (stereo not given) [1-(1-methyl-2-propoxyethoxy)-2-propanol]
742.865 ± 0.56	1296.1 ± 0.83	738.096 ± 0.57	1273.6 ± 0.82	733.301 ± 0.58	1250 ± 0.82	728.477 ± 0.58	1228.9 ± 0.81	723.625 ± 0.59	1205.7 ± 0.8	CCCCN [1-butanamine]
766.115 ± 0.53	1289.2 ± 0.83	762.022 ± 0.53	1269.5 ± 0.82	757.784 ± 0.54	1246.7 ± 0.81	752.284 ± 0.55	1226.7 ± 0.81	748.17 ± 0.55	1207 ± 0.8	CCCCNCCCC [dibutylamine]
781.336 ± 0.5	1285 ± 0.83	777.632 ± 0.51	1266.4 ± 0.82	773.913 ± 0.51	1247.6 ± 0.81	770.183 ± 0.52	1229 ± 0.81	766.44 ± 0.53	1210.4 ± 0.8	CCCCN(CCCC)CCCC [tributylamine]
